Results as given in US8076514B2, “Phenyl compounds and their use in the treatment of Type II diabetes” (Eli Lilly and Company, priority 2005, dated 2011).
Where a name gives a salt, the structure may show the parent alone.

Molecular target: T1, human recombinant DPIV enzyme (Homo sapiens, UniProt P27487)
T1 construct: Secreted DPIV (lacking membrane anchor) is enriched from HEK293 cell culture supernatant; made in house; host or cells: HEK293
Test: Human Recombinant DPIV Activity Assay (fluorometric end point, Gly-Pro-AMC substrate)
Type: biochemical
Conditions: enriched human recombinant DPIV, Gly-Pro-AMC 0.02 mM, 12 points concentration response curve
Protocol: Human Recombinant DPIV Activity Assay The DPIV assay uses a fluorometric end point assay (excitation 355 nm; emission 460 nm), enriched human recombinant DPIV enzyme (21.3 μU/μl), and Gly-Pro-AMC (Bachem I-1225) as substrate (0.02 mM). Secreted DPIV (lacking membrane anchor) is enriched from HEK293 cell culture supernatant by ultrafiltration, ultra-centrifugation, and size-exclusion chromatography. IC50 values of the compounds are calculated based on a 12 points concentration response curve. Each concentration is measured in duplicate. The assay is validated by plate variability and conformity, inter-plate variability, signal window, and minimum significant ration of IC50. A MSR is calculated based on a test/retest analysis and a retrospective analysis. The MSR value is 1.8.

T1 sequence (P27487 29-766 limits assumed): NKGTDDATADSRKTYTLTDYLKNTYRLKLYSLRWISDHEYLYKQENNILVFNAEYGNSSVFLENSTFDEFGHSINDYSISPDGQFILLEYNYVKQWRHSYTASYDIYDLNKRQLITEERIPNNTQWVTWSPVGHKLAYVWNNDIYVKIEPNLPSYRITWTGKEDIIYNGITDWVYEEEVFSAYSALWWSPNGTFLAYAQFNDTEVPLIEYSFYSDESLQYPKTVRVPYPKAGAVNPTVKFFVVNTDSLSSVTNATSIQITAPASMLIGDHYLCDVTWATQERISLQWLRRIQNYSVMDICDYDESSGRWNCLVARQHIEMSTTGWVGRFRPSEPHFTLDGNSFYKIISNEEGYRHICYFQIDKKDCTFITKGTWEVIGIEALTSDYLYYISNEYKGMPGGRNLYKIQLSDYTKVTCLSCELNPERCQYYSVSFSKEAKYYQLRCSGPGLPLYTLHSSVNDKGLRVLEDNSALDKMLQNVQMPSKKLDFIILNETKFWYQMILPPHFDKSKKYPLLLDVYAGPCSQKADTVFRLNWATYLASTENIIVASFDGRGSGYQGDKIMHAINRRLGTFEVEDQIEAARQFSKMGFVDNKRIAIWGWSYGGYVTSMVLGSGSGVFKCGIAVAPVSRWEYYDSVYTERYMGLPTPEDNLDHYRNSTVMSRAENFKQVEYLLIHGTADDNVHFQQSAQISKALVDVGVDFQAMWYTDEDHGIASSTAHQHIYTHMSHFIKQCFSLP

| SMILES | IC50 |
| --- | --- |
| COc1ccc(C(=O)NC(C)(C)C)c(C[C@H](O)[C@H](N)Cc2ccccc2F)c1 [Example 6, 2-[(2S,3R)-3-Amino-4-(2-fluoro-phenyl)-2-hydroxy-butyl]-N-tert-butyl-4-methoxy-benzamide Hydrochloride] | 98 nM |
| CC(C)(C)NC(=O)c1cc(Cl)ccc1C[C@H](O)[C@H](N)Cc1ccccc1F [Example 7, 2-[(2S,3R)-3-Amino-4-(2-fluoro-phenyl)-2-hydroxy-butyl]-N-tert-butyl-5-chloro-benzamide Hydrochloride] | 134 nM |
